From patent US12686674B2, “Crystal form of compound represented by formula I, and preparation therefor and application thereof” (Shanghai Zhimeng Biopharma, Inc., priority 2021, dated 2026)
≈ marks a conversion by molar mass, not a printed value.

Columns and labels:
Format in all cases: physicochemical
[1] = Solid-state stability, placed open one and two weeks (HPLC purity, XRPD)
Protocol: Purity tests (HPLC) and crystal form detection (XRPD) were performed on starting samples, samples stored for one week and two weeks.

[2] = Influencing factor test of crystal form A (high temperature, high humidity, light); conditions: High temperature (60° C.), Day 30
[3] = Rough solubility at room temperature
Protocol: Specifically, ~2 mg of the starting material was weighed in an HPLC vial, the solvents in the following table were added step by step (50/50/200/700 μL) until the solid is completely dissolved or the total volume reaches 1.0 mL.

[4] = Influencing factor test of crystal form A (high temperature, high humidity, light)
Description: Sample purity and solubility data were collected using an Agilent model 1260 high-performance liquid chromatograph (equipped with DAD detector). [table]

[5] = High humidity (25° C., 90% ± 5%), Day 5
[6] = High humidity (25° C., 90% ± 5%), Day 10
[7] = High humidity (25° C., 90% ± 5%), Day 30
[8] = High temperature (60° C.), Day 5
[9] = High temperature (60° C.), Day 10
[10] = High temperature (60° C.), Day 30
[11] = High temperature and humidity (60° C., 75% ± 5%), Day 5
[12] = High temperature and humidity (60° C., 75% ± 5%), Day 10
[13] = High temperature and humidity (60° C., 75% ± 5%), Day 30
[14] = Light exposure (25° C., 4500 Lx ± 500 Lx, NUV 0.9 w/m^2), bare sample, Day 5
[15] = Light exposure (25° C., 4500 Lx ± 500 Lx, NUV 0.9 w/m^2), bare sample, Day 10
[16] = Light exposure (25° C., 4500 Lx ± 500 Lx, NUV 0.9 w/m^2), bare sample, Day 30

- Purity(Area %) ([1]; 1 week, 25° C./60% RH, open): 99.08 Area %
- Purity(Area %) ([1]; 1 week, 40° C./75% RH, open): 99.07 Area %
- Purity(Area %) ([1]; 1 week, 60° C., open): 99.09 Area %
- change in Crystal form (XRPD) ([1]; 1 week, 25° C./60% RH, 40° C./75% RH, 60° C.): Unchanged
- Purity(Area %) ([1]; 2 week, 25° C./60% RH, open): 99.12 Area %
- Purity(Area %) ([1]; 2 week, 40° C./75% RH, open): 99.14 Area %
- Purity(Area %) ([1]; 2 week, 60° C., open): 99.13 Area %
- change in Crystal form (XRPD) ([1]; 2 week, 25° C./60% RH, 40° C./75% RH, 60° C.): Unchanged
- Purity(Area %) ([1]; Starting sample): 99.12 Area %
- Moisture (KF) [2]: 0.09%
- solubility ([3]; organic solvent or mixture, thermodynamic from solid, 1,4-Dioxane): 6.9 to 20.7 mg/mL (≈ 12.3 to 36.8 mM)
- solubility ([3]; organic solvent or mixture, thermodynamic from solid, 2-MeTHF): 6.9 to 20.7 mg/mL (≈ 12.3 to 36.8 mM)
- solubility ([3]; organic solvent or mixture, thermodynamic from solid, ACN): < 2.1 mg/mL
- solubility ([3]; organic solvent or mixture, thermodynamic from solid, Acetone): 6.8 to 20.3 mg/mL (≈ 12.1 to 36.1 mM)
- solubility ([3]; organic solvent or mixture, thermodynamic from solid, CH3COOH): > 41.8 mg/mL
- solubility ([3]; organic solvent or mixture, thermodynamic from solid, CPME): < 2 mg/mL
- solubility ([3]; organic solvent or mixture, thermodynamic from solid, DCM): < 2.1 mg/mL
- solubility ([3]; organic solvent or mixture, thermodynamic from solid, DMF): > 41.2 mg/mL
- solubility ([3]; organic solvent or mixture, thermodynamic from solid, DMSO): > 40.4 mg/mL
- solubility ([3]; organic solvent or mixture, thermodynamic from solid, EtOAc): < 2.1 mg/mL
- solubility ([3]; organic solvent or mixture, thermodynamic from solid, EtOH): 2 to 6.7 mg/mL (≈ 3.56 to 11.9 mM)
- solubility ([3]; organic solvent or mixture, thermodynamic from solid, IPA): < 2.1 mg/mL
- solubility ([3]; organic solvent or mixture, thermodynamic from solid, IPAc): < 2 mg/mL
- solubility ([3]; organic solvent or mixture, thermodynamic from solid, MEK): 2 to 6.6 mg/mL (≈ 3.56 to 11.7 mM)
- solubility ([3]; organic solvent or mixture, thermodynamic from solid, MIBK): < 2 mg/mL
- solubility ([3]; organic solvent or mixture, thermodynamic from solid, MTBE): < 2 mg/mL
- solubility ([3]; organic solvent or mixture, thermodynamic from solid, MeOH): 2 to 6.6 mg/mL (≈ 3.56 to 11.7 mM)
- solubility ([3]; organic solvent or mixture, thermodynamic from solid, THF): > 40.4 mg/mL
- solubility ([3]; organic solvent or mixture, thermodynamic from solid, Toluene): < 2 mg/mL
- solubility ([3]; organic solvent or mixture, thermodynamic from solid, n-Heptane): < 2 mg/mL
- solubility ([3]; water, thermodynamic from solid, H2O): < 2.1 mg/mL
- Content (HPLC, calculated by anhydrous substance) ([4]; Day 0, Table M-2): 99.2%
- Moisture (KF) ([4]; Day 0, Table M-2): 0.11%
- Other single impurity RRT~1.10 (HPLC) ([4]; Day 0, Table M-2): 0:0.14%
- Other single impurity RRT~1.23 (HPLC) ([4]; Day 0, Table M-2): 3:0.03%
- Other single impurity RRT~1.44 (HPLC) ([4]; Day 0, Table M-2): 4:0.03%
- Other single impurity RRT~1.53 (HPLC) ([4]; Day 0, Table M-2): 3:0.03%
- Other single impurity RRT~1.87 (HPLC) ([4]; Day 0, Table M-2): 7:0.03%
- Total impurities (HPLC) ([4]; Day 0, Table M-2): 0.26%
- Content (HPLC, calculated by anhydrous substance) ([4]; Day 0, Table M-3): 99.8%
- Moisture (KF) ([4]; Day 0, Table M-3): 0.11%
- Other single impurity RRT~1.10 (HPLC) ([4]; Day 0, Table M-3): 0:0.13%
- Other single impurity RRT~1.24 (HPLC) ([4]; Day 0, Table M-3): 4:0.03%
- Other single impurity RRT~1.48 (HPLC) ([4]; Day 0, Table M-3): 8:0.03%
- Other single impurity RRT~1.58 (HPLC) ([4]; Day 0, Table M-3): 8:0.03%
- Other single impurity RRT~1.97 (HPLC) ([4]; Day 0, Table M-3): 7:0.03%
- Total impurities (HPLC) ([4]; Day 0, Table M-3): 0.25%
- Content (HPLC, calculated by anhydrous substance) [4, 5]: 99.4%
- Moisture (KF) [4, 5]: 0.21%
- Other single impurity RRT~1.10 (HPLC) [4, 5]: 0:0.14%
- Other single impurity RRT~1.24 (HPLC) [4, 5]: 4:0.04%
- Other single impurity RRT~1.48 (HPLC) [4, 5]: 8:0.03%
- Other single impurity RRT~1.59 (HPLC) [4, 5]: 9:0.03%
- Other single impurity RRT~1.92 (HPLC) [4, 5]: 2:0.03%
- Other single impurity RRT~1.97 (HPLC) [4, 5]: 7:0.03%
- Total impurities (HPLC) [4, 5]: 0.30%
- Content (HPLC, calculated by anhydrous substance) [4, 6]: 99.7%
- Moisture (KF) [4, 6]: 0.23%
- Other single impurity RRT~1.10 (HPLC) [4, 6]: 0:0.13%
- Other single impurity RRT~1.24 (HPLC) [4, 6]: 4:0.03%
- Other single impurity RRT~1.46 (HPLC) [4, 6]: 6:0.03%
- Other single impurity RRT~1.56 (HPLC) [4, 6]: 6:0.03%
- Other single impurity RRT~1.88 (HPLC) [4, 6]: 8:0.03%
- Other single impurity RRT~1.93 (HPLC) [4, 6]: 3:0.03%
- Total impurities (HPLC) [4, 6]: 0.28%
- Content (HPLC, calculated by anhydrous substance) [4, 7]: 101.3%
- Moisture (KF) [4, 7]: 0.10%
- Other single impurity RRT~1.10 (HPLC) [4, 7]: 0:0.15%
- Other single impurity RRT~1.24 (HPLC) [4, 7]: 4:0.03%
- Other single impurity RRT~1.48 (HPLC) [4, 7]: 8:0.03%
- Other single impurity RRT~1.59 (HPLC) [4, 7]: 9:0.03%
- Other single impurity RRT~1.92 (HPLC) [4, 7]: 2:0.03%
- Other single impurity RRT~1.97 (HPLC) [4, 7]: 7:0.03%
- Total impurities (HPLC) [4, 7]: 0.30%
- Content (HPLC, calculated by anhydrous substance) [4, 8]: 99.1%
- Moisture (KF) [4, 8]: 0.09%
- Other single impurity RRT~1.10 (HPLC) [4, 8]: 0:0.13%
- Other single impurity RRT~1.24 (HPLC) [4, 8]: 4:0.04%
- Other single impurity RRT~1.48 (HPLC) [4, 8]: 8:0.03%
- Other single impurity RRT~1.59 (HPLC) [4, 8]: 9:0.03%
- Other single impurity RRT~1.92 (HPLC) [4, 8]: 2:0.03%
- Other single impurity RRT~1.97 (HPLC) [4, 8]: 7:0.03%
- Total impurities (HPLC) [4, 8]: 0.29%
- Content (HPLC, calculated by anhydrous substance) [4, 9]: 99.8%
- Moisture (KF) [4, 9]: 0.09%
- Other single impurity RRT~1.10 (HPLC) [4, 9]: 0:0.14%
- Other single impurity RRT~1.24 (HPLC) [4, 9]: 4:0.03%
- Other single impurity RRT~1.46 (HPLC) [4, 9]: 6:0.03%
- Other single impurity RRT~1.56 (HPLC) [4, 9]: 6:0.03%
- Other single impurity RRT~1.93 (HPLC) [4, 9]: 3:0.03%
- Total impurities (HPLC) [4, 9]: 0.26%
- Content (HPLC, calculated by anhydrous substance) [4, 10]: 100.9%
- Other single impurity RRT~1.10 (HPLC) [4, 10]: 0:0.14%
- Other single impurity RRT~1.24 (HPLC) [4, 10]: 4:0.03%
- Other single impurity RRT~1.48 (HPLC) [4, 10]: 8:0.03%
- Other single impurity RRT~1.58 (HPLC) [4, 10]: 8:0.03%
- Other single impurity RRT~1.92 (HPLC) [4, 10]: 2:0.03%
- Other single impurity RRT~1.97 (HPLC) [4, 10]: 7:0.03%
- Total impurities (HPLC) [4, 10]: 0.29%
- Content (HPLC, calculated by anhydrous substance) [4, 11]: 99.6%
- Moisture (KF) [4, 11]: 0.12%
- Other single impurity RRT~1.10 (HPLC) [4, 11]: 0:0.14%
- Other single impurity RRT~1.24 (HPLC) [4, 11]: 4:0.03%
- Other single impurity RRT~1.46 (HPLC) [4, 11]: 6:0.03%
- Other single impurity RRT~1.56 (HPLC) [4, 11]: 6:0.03%
- Other single impurity RRT~1.88 (HPLC) [4, 11]: 8:0.03%
- Other single impurity RRT~1.93 (HPLC) [4, 11]: 3:0.03%
- Total impurities (HPLC) [4, 11]: 0.29%
- Content (HPLC, calculated by anhydrous substance) [4, 12]: 101.3%
- Moisture (KF) [4, 12]: 0.14%
- Other single impurity RRT~1.10 (HPLC) [4, 12]: 0:0.14%
- Other single impurity RRT~1.24 (HPLC) [4, 12]: 4:0.03%
- Other single impurity RRT~1.48 (HPLC) [4, 12]: 8:0.03%
- Other single impurity RRT~1.59 (HPLC) [4, 12]: 9:0.03%
- Other single impurity RRT~1.97 (HPLC) [4, 12]: 7:0.03%
- Total impurities (HPLC) [4, 12]: 0.26%
- Content (HPLC, calculated by anhydrous substance) [4, 13]: 99.3%
- Moisture (KF) [4, 13]: 0.14%
- Other single impurity RRT~1.10 (HPLC) [4, 13]: 0:0.14%
- Other single impurity RRT~1.24 (HPLC) [4, 13]: 4:0.03%
- Other single impurity RRT~1.48 (HPLC) [4, 13]: 8:0.03%
- Other single impurity RRT~1.58 (HPLC) [4, 13]: 8:0.03%
- Other single impurity RRT~1.96 (HPLC) [4, 13]: 6:0.03%
- Total impurities (HPLC) [4, 13]: 0.26%
- Content (HPLC, calculated by anhydrous substance) [4, 14]: 99.6%
- Moisture (KF) [4, 14]: 0.10%
- Other single impurity RRT~1.10 (HPLC) [4, 14]: 0:0.14%
- Other single impurity RRT~1.24 (HPLC) [4, 14]: 4:0.03%
- Other single impurity RRT~1.46 (HPLC) [4, 14]: 6:0.03%
- Other single impurity RRT~1.56 (HPLC) [4, 14]: 6:0.03%
- Other single impurity RRT~1.93 (HPLC) [4, 14]: 3:0.03%
- Total impurities (HPLC) [4, 14]: 0.26%
- Content (HPLC, calculated by anhydrous substance) [4, 15]: 100.7%
- Moisture (KF) [4, 15]: 0.10%
- Other single impurity RRT~1.10 (HPLC) [4, 15]: 0:0.14%
- Other single impurity RRT~1.24 (HPLC) [4, 15]: 4:0.03%
- Other single impurity RRT~1.48 (HPLC) [4, 15]: 8:0.03%
- Other single impurity RRT~1.59 (HPLC) [4, 15]: 9:0.03%
- Other single impurity RRT~1.97 (HPLC) [4, 15]: 7:0.03%
- Total impurities (HPLC) [4, 15]: 0.26%
- Content (HPLC, calculated by anhydrous substance) [4, 16]: 99.8%
- Moisture (KF) [4, 16]: 0.10%
- Other single impurity RRT~1.10 (HPLC) [4, 16]: 0:0.13%
- Other single impurity RRT~1.24 (HPLC) [4, 16]: 4:0.03%
- Other single impurity RRT~1.48 (HPLC) [4, 16]: 8:0.03%
- Other single impurity RRT~1.58 (HPLC) [4, 16]: 8:0.03%
- Other single impurity RRT~1.97 (HPLC) [4, 16]: 7:0.03%
- Total impurities (HPLC) [4, 16]: 0.25%
Structure (SMILES): O=C1CO[C@H](c2cn(-c3ccc(Br)cc3)nc2-c2ccc(F)cc2)N1CCc1ccc2[nH]c(=O)[nH]c2c1 [Crystal form A]
